Results reported in ChEMBL document CHEMBL1124095, “Resolution of the nonsteroidal antiandrogen 4'-cyano-3-[(4-fluorophenyl)sulfonyl]-2-hydroxy-2-methyl-3'- (trifluoromethyl)-propionanilide and the determination of the absolute configuration of the active enantiomer” (1988).

Species: Rattus norvegicus
Test: Antiandrogen activity in male rats
Format: functional

Structure (SMILES) | ED50 [mg/kg]
C[C@@](O)(CSc1ccc(F)cc1)C(=O)Nc1ccc(C#N)c(C(F)(F)F)c1 | 30
CC(O)(CSc1ccc(F)cc1)C(=O)Nc1ccc(C#N)c(C(F)(F)F)c1 (stereo unspecified) | 0.5
C[C@](O)(CSc1ccc(F)cc1)C(=O)Nc1ccc(C#N)c(C(F)(F)F)c1 | 0.5
C[C@](O)(CS(=O)(=O)c1ccc(F)cc1)C(=O)Nc1ccc(C#N)c(C(F)(F)F)c1 [(R)-BICALUTAMIDE] | 0.5
C[C@@](O)(CS(=O)(=O)c1ccc(F)cc1)C(=O)Nc1ccc(C#N)c(C(F)(F)F)c1 [(S)-BICALUTAMIDE] | 30
CC(O)(CS(=O)(=O)c1ccc(F)cc1)C(=O)Nc1ccc(C#N)c(C(F)(F)F)c1 (stereo unspecified) [BICALUTAMIDE] | 0.5
